Target: human APJ receptor (Homo sapiens (Human), UniProt P35414)
Experiment: [35S]GTPγS binding assay on membranes from CHO cells stably expressing human APJ receptor
Format: biochemical
Settings: membranes of CHO cells stably expressing human APJ receptor, read-out: Activity hAPJ SPA EC50 IP
Protocol: The human APJ receptor was cloned by polymerase chain reaction and the gene encoding the receptor was subcloned in pFLAG-CMV™-3 expression vector (Sigma, Saint Louis, Mo. USA) in-house at Amgen. A GTPγS binding assay was performed on membranes prepared from CHO cells stably expressing human APJ receptor. The optimum experimental conditions for the concentrations of GDP, MgCl2, and NaCl in the assay buffer were initially determined. […] Incubation was at RT for 90 min and the microplate was read using a ViewLux™ ultra HTS Microplate Imager (PerkinElmer, Inc.). All the results presented are means of several independent experiments and analyzed by non-linear regression methods using the commercially available program Prism (GraphPad, San Diego, Calif.) providing the EC50 values detailed in Table 27.

Sequence of human APJ receptor (P35414 whole entry): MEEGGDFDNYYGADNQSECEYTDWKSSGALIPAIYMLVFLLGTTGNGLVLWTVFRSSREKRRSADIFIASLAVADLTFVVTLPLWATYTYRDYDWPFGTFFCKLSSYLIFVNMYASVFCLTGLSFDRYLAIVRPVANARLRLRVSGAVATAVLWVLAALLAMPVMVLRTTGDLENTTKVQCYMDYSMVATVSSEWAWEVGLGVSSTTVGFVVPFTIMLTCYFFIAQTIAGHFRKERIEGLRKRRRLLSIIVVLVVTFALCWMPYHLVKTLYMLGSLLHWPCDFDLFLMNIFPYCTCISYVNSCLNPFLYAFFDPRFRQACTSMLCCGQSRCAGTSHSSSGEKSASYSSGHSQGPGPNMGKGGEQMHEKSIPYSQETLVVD

SMILES | EC50 [nM]
COc1cccc(-c2nnc(NS(=O)(=O)[C@@H](C)[C@H](C)c3ncc(Cl)cn3)n2[C@@H](C)c2c(C)noc2C)n1 (racemic) [Example 314.0, (2S,3R)-3-(5-chloropyrimidin-2-yl)-N-(4-((R)-1-(3,5-dimethylisoxazol-4-yl)ethyl)-5-(6-methoxypyridin-2-yl)-4H-1,2,4-triazol-3-yl)butane-2-sulfonamide or (2S,3R)-3-(5-chloropyrimidin-2-yl)-N-(4-((S)-1-(3,5-dimethylisoxazol-4-yl)ethyl)-5-(6-methoxypyridin-2-yl)-4H-1,2,4-triazol-3-yl)butane-2-sulfonamide] | 33
COc1cccc(-c2nnc(NS(=O)(=O)[C@@H](C)[C@@H](OC(C)C)c3ncc(C)cn3)n2[C@@H](C)c2c(C)noc2C)n1 (racemic) [Example 315.0] | 57
COc1cccc(-c2nnc(NS(=O)(=O)[C@@H](C)[C@@H](OC(C)C)c3ncc(C)cn3)n2[C@@H](C)c2c(C)noc2C)n1 (racemic) [Example 316.0, (1S,2S)-N-(4-((R)-1-(3,5-dimethylisoxazol-4-yl)ethyl)-5-(6-methoxypyridin-2-yl)-4H-1,2,4-triazol-3-yl)-1-isopropoxy-1-(5-methylpyrimidin-2-yl)propane-2-sulfonamide or (1S,2S)-N-(4-((S)-1-(3,5-dimethylisoxazol-4-yl)ethyl)-5-(6-methoxypyridin-2-yl)-4H-1,2,4-triazol-3-yl)-1-isopropoxy-1-(5-methylpyrimidin-2-yl)propane-2-sulfonamide] | 21
COc1cccc(-c2nnc(NS(=O)(=O)[C@@H](C)[C@H](OC)c3ncc(Cl)cn3)n2[C@H](C)[C@@H]2CCCCO2)n1 (racemic) [Example 319.0] | 0.44
COC[C@@H](C)n1c(NS(=O)(=O)[C@@H](C)[C@H](C)c2ncc(Cl)cn2)nnc1-c1cccnc1 (single isomer, unassigned) [Example 52.0] | 16
COC[C@@H](C)n1c(NS(=O)(=O)[C@@H](C)[C@H](C)c2ncc(Cl)cn2)nnc1-c1cccnc1 (single isomer, unassigned) [Example 53.0] | 30
CC[C@@H](C)n1c(NS(=O)(=O)[C@@H](C)[C@H](OC)c2ncc(Cl)cn2)nnc1-c1cccc(OC)n1 (single isomer, unassigned) [Example 54.0] | 0.5
CC[C@@H](C)n1c(NS(=O)(=O)[C@@H](C)[C@H](OC)c2ncc(Cl)cn2)nnc1-c1cccc(OC)n1 (single isomer, unassigned) [Example 55.0] | 0.4
COc1cccc(-c2nnc(NS(=O)(=O)[C@@H](C)[C@H](OC)c3ncc(Cl)cn3)n2[C@@H]2CC23CC3)n1 (single isomer, unassigned) [Example 90.0] | 6.2
COc1cccc(-c2nnc(NS(=O)(=O)[C@@H](C)[C@H](OC)c3ncc(Cl)cn3)n2[C@@H]2CC23CC3)n1 (single isomer, unassigned) [Example 91.0] | 38
COc1cccc(-c2nnc(NS(=O)(=O)[C@@H](C)[C@H](OC)c3ncc(Cl)cn3)n2[C@@H]2CCC23CCC3)n1 (single isomer, unassigned) [Example 92.0] | 1.2
COc1cccc(-c2nnc(NS(=O)(=O)[C@@H](C)[C@H](OC)c3ncc(Cl)cn3)n2[C@@H]2CCC23CCC3)n1 (single isomer, unassigned) [Example 93.0] | 2.3
COc1cccc(-c2nnc(NS(=O)(=O)[C@@H](C)[C@H](OC)c3ncc(Cl)cn3)n2CC[S@+](C)[O-])n1 (single isomer, unassigned) [Example 94.0] | 1000
COc1cccc(-c2nnc(NS(=O)(=O)[C@@H](C)[C@H](OC)c3ncc(Cl)cn3)n2CC[S@+](C)[O-])n1 (single isomer, unassigned) [Example 95.0] | 26
COc1cnc([C@@H](OC)[C@H](C)S(=O)(=O)Nc2nnc(-c3cccc(OC)n3)n2[C@H]2CC23CC3)cn1 (single isomer, unassigned) [Example 159.0, (1R,2S)-1-methoxy-1-(5-methoxypyrazin-2-yl)-N-(5-(6-methoxypyridin-2-yl)-4-((S)-spiro[2.2]pentan-1-yl)-4H-1,2,4-triazol-3-yl)propane-2-sulfonamide or (1R,2S)-1-methoxy-1-(5-methoxypyrazin-2-yl)-N-(5-(6-methoxypyridin-2-yl)-4-((R)-spiro[2.2]pentan-1-yl)-4H-1,2,4-triazol-3-yl)propane-2-sulfonamide] | 550
COc1cnc([C@@H](OC)[C@H](C)S(=O)(=O)Nc2nnc(-c3cccc(OC)n3)n2[C@H]2CC23CC3)cn1 (single isomer, unassigned) [Example 160.0, (1R,2S)-1-methoxy-1-(5-methoxypyrazin-2-yl)-N-(5-(6-methoxypyridin-2-yl)-4-((S)-spiro[2.2]pentan-1-yl)-4H-1,2,4-triazol-3-yl)propane-2-sulfonamide or (1R,2S)-1-methoxy-1-(5-methoxypyrazin-2-yl)-N-(5-(6-methoxypyridin-2-yl)-4-((R)-spiro[2.2]pentan-1-yl)-4H-1,2,4-triazol-3-y)propane-2-sulfonamide] | 90
COc1cccc(-c2nnc(NS(=O)(=O)[C@@H](C)[C@H](OC)c3ncc(Cl)cn3)n2[C@@H]2CC[C@H]2OC)n1 (single isomer, unassigned) [Example 161.0, (1R,2S)-1-(5-Chloropyrimidin-2-yl)-1-methoxy-N-(4-((1R,2R)-2-methoxycyclobutyl)-5-(6-methoxypyridin-2-yl)-4H-1,2,4-triazol-3-yl)propane-2-sulfonamide or (1R,2S)-1-(5-chloropyrimidin-2-yl)-1-methoxy-N-(4-((1S,2S)-2-methoxycyclobutyl)-5-(6-methoxypyridin-2-yl)-4H-1,2,4-triazol-3-yl)propane-2-sulfonamide] | 2.2
COc1cccc(-c2nnc(NS(=O)(=O)[C@@H](C)[C@H](OC)c3ncc(Cl)cn3)n2[C@@H]2CC[C@H]2OC)n1 (single isomer, unassigned) [Example 162.0, (1R,2S)-1-(5-Chloropyrimidin-2-yl)-1-methoxy-N-(4-((1R,2R)-2-methoxycyclobutyl)-5-(6-methoxypyridin-2-yl)-4H-1,2,4-triazol-3-yl)propane-2-sulfonamide or (1R,2S)-1-(5-chloropyrimidin-2-yl)-1-methoxy-N-(4-((1S,2S)-2-methoxycyclobutyl)-5-(6-methoxypyridin-2-yl)-4H-1,2,4-triazol-3-yl)propane-2-sulfonamide] | 2.8
COc1cccc(-c2nnc(NS(=O)(=O)[C@@H](C)[C@H](OC)c3ncc(Cl)cn3)n2[C@@H](C)c2ccno2)n1 (single isomer, unassigned) [Example 212.0, (1R,2S)-1-(5-chloro-2-pyrimidinyl)-1-methoxy-N-(5-(6-methoxy-2-pyridinyl)-4-((1S)-1-(1,2-oxazol-5-yl)ethyl)-4H-1,2,4-triazol-3-yl)-2-propanesulfonamide or (1R,2S)-1-(5-chloro-2-pyrimidinyl)-1-methoxy-N-(5-(6-methoxy-2-pyridinyl)-4-((1R)-1-(1,2-oxazol-5-yl)ethyl)-4H-1,2,4-triazol-3-yl)-2-propanesulfonamide] | 0.85
COc1cccc(-c2nnc(NS(=O)(=O)[C@@H](C)[C@H](OC)c3ncc(Cl)cn3)n2[C@@H](C)c2ccno2)n1 (single isomer, unassigned) [Example 213.0, (1R,2S)-1-(5-chloro-2-pyrimidinyl)-1-methoxy-N-(5-(6-methoxy-2-pyridinyl)-4-((1R)-1-(1,2-oxazol-5-yl)ethyl)-4H-1,2,4-triazol-3-yl)-2-propanesulfonamide or (1R,2S)-1-(5-chloro-2-pyrimidinyl)-1-methoxy-N-(5-(6-methoxy-2-pyridinyl)-4-((1S)-1-(1,2-oxazol-5-yl)ethyl)-4H-1,2,4-triazol-3-yl)-2-propanesulfonamide] | 0.66
COc1cccc(-c2nnc(NS(=O)(=O)[C@@H](C)[C@H](C)c3ncc(Cl)cn3)n2[C@@H](C)c2ccno2)n1 (single isomer, unassigned) [Example 214.0, (2S,3R)-3-(5-chloro-2-pyrimidinyl)-N-(5-(6-methoxy-2-pyridinyl)-4-((1S)-1-(1,2-oxazol-5-yl)ethyl)-4H-1,2,4-triazol-3-yl)-2-butanesulfonamide or (2S,3R)-3-(5-chloro-2-pyrimidinyl)-N-(5-(6-methoxy-2-pyridinyl)-4-((1R)-1-(1,2-oxazol-5-yl)ethyl)-4H-1,2,4-triazol-3-yl)-2-butanesulfonamide] | 2.9
COc1cccc(-c2nnc(NS(=O)(=O)[C@@H](C)[C@H](C)c3ncc(Cl)cn3)n2[C@@H](C)c2ccno2)n1 (single isomer, unassigned) [Example 215.0, (2S,3R)-3-(5-chloro-2-pyrimidinyl)-N-(5-(6-methoxy-2-pyridinyl)-4-((1R)-1-(1,2-oxazol-5-yl)ethyl)-4H-1,2,4-triazol-3-yl)-2-butanesulfonamide or (2S,3R)-3-(5-chloro-2-pyrimidinyl)-N-(5-(6-methoxy-2-pyridinyl)-4-((1S)-1-(1,2-oxazol-5-yl)ethyl)-4H-1,2,4-triazol-3-yl)-2-butanesulfonamide] | 2
COc1cccc(-c2nnc(NS(=O)(=O)[C@@H](C)[C@@H](OC(C)C)c3ncc(C)cn3)n2[C@@H](C)c2ccno2)n1 (single isomer, unassigned) [Example 216.0, (1S,2S)-N-(5-(6-methoxy-2-pyridinyl)-4-((1S)-1-(1,2-oxazol-5-yl)ethyl)-4H-1,2,4-triazol-3-yl)-1-(5-methyl-2-pyrimidinyl)-1-(2-propanyloxy)-2-propanesulfonamide or (1S,2S)-N-(5-(6-methoxy-2-pyridinyl)-4-((1R)-1-(1,2-oxazol-5-yl)ethyl)-4H-1,2,4-triazol-3-yl)-1-(5-methyl-2-pyrimidinyl)-1-(2-propanyloxy)-2-propanesulfonamide] | 2.2

Reference: patent US10689367B2, “Triazole pyridyl compounds as agonists of the APJ receptor” (AMGEN INC., priority 2016, dated 2020)
